In ChEMBL document CHEMBL1201862, “PubChem BioAssay data set” (2004):
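Method: 48-hour compound exposure of cells in 96-well plates, five concentrations, linear interpolation of endpoints. GI50 = concentration required for 50% inhibition of growth.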 Active and inactive are the calls of the source. Cut-off read from the data, not from the text of the source: active = GI50 up to about 1.1 µM and inactive = higher.

Legend:
Test in all cases: NCI tumour cell line growth inhibition, 48 h
[1] = system: SW-620
[2] = system: NCI-H226
[3] = system: MDA-N
[4] = system: TK-10
[5] = system: NCI-H522
[6] = system: MOLT-4
[7] = system: K562
[8] = system: MDA-MB-231
[9] = system: SF-539
[10] = system: KM12
[11] = system: OVCAR-4
[12] = system: OVCAR-8
[13] = system: OVCAR-3
[14] = system: HCC 2998
[15] = system: EKVX
[16] = system: COLO 205
[17] = system: SK-MEL-2
[18] = system: PC-3
[19] = system: LOX IMVI
[20] = system: UO-31

SMILES | GI50 [1] | GI50 [2] | GI50 [3] | GI50 [4] | GI50 [5] | GI50 [6] | GI50 [7] | GI50 [8] | GI50 [9] | GI50 [10] | GI50 [11] | GI50 [12] | GI50 [13] | GI50 [14] | GI50 [15] | GI50 [16] | GI50 [17] | GI50 [18] | GI50 [19] | GI50 [20]
O=C(O)C1CCCCN1C(=O)Cc1c[nH]c2ccccc12 (centres undefined) | > 100 µM (inactive) | > 100 µM (inactive) | > 100 µM (inactive) | > 100 µM (inactive) | > 100 µM (inactive) | > 100 µM (inactive) | > 100 µM (inactive) | 29 µM (inactive) | > 100 µM (inactive) | > 100 µM (inactive) | > 100 µM (inactive) | > 100 µM (inactive) | > 100 µM (inactive) | > 100 µM (inactive) | > 100 µM (inactive) | > 100 µM (inactive) | > 100 µM (inactive) | > 100 µM (inactive) | > 100 µM (inactive) | 
CN(C)CN1CSC(=S)N(CN(C)C)C1 | > 100 µM (inactive) | > 100 µM (inactive) | > 100 µM (inactive) | > 100 µM (inactive) | 42 µM (inactive) | 26.7 µM (inactive) | 44.5 µM (inactive) | > 100 µM (inactive) |  | > 100 µM (inactive) | > 100 µM (inactive) | > 100 µM (inactive) | > 100 µM (inactive) | > 100 µM (inactive) | > 100 µM (inactive) |  | 33.3 µM (inactive) | 16.9 µM (inactive) | > 100 µM (inactive) | > 100 µM (inactive)
CN1C/C(=C\c2cccs2)C2=NN(C)C(c3cccs3)C2C1 (centres undefined) | > 100 µM (inactive) | > 100 µM (inactive) | > 100 µM (inactive) | > 100 µM (inactive) | 81.3 µM (inactive) | 28.8 µM (inactive) | 29.3 µM (inactive) | 67.9 µM (inactive) |  | > 100 µM (inactive) | 35.8 µM (inactive) | > 100 µM (inactive) | 77.8 µM (inactive) | 42.1 µM (inactive) | > 100 µM (inactive) | > 100 µM (inactive) | 24 µM (inactive) | 19 µM (inactive) | > 100 µM (inactive) | 75.7 µM (inactive)
COc1cccc(-n2c(N)c(-c3nc4cc(C(F)(F)F)ccc4s3)c3ccc([N+](=O)[O-])cc3c2=O)c1 |  | > 100 µM (inactive) | > 100 µM (inactive) | > 100 µM (inactive) | > 100 µM (inactive) | > 100 µM (inactive) | > 100 µM (inactive) | > 100 µM (inactive) |  | > 100 µM (inactive) | > 100 µM (inactive) |  | > 100 µM (inactive) | > 100 µM (inactive) | > 100 µM (inactive) | > 100 µM (inactive) | > 100 µM (inactive) | > 100 µM (inactive) |  | > 100 µM (inactive)
COc1ccc(Cc2nc3cc(C(F)(F)F)ccc3n2C[C@@H]2CCCN3CCCCC23)cc1 (some centres undefined) | 21.3 µM (inactive) | 18.1 µM (inactive) | 4.59 µM (inactive) | 9.1 µM (inactive) | 7 µM (inactive) | 6.84 µM (inactive) | 13.7 µM (inactive) | 11 µM (inactive) | 13.5 µM (inactive) | 13.5 µM (inactive) | 11.7 µM (inactive) | 15.3 µM (inactive) | 5.77 µM (inactive) | 2 µM (inactive) | 13.6 µM (inactive) | 5.36 µM (inactive) | 15.6 µM (inactive) | 10.6 µM (inactive) | 10.5 µM (inactive) | 
C[C@@H](c1ccccc1)N1CN(C(=O)OCc2ccccc2)C(C)(C)CC1=O | > 100 µM (inactive) | > 100 µM (inactive) | > 100 µM (inactive) | > 100 µM (inactive) | > 100 µM (inactive) | > 100 µM (inactive) | > 100 µM (inactive) | > 100 µM (inactive) | > 100 µM (inactive) | > 100 µM (inactive) | > 100 µM (inactive) | > 100 µM (inactive) | > 100 µM (inactive) | > 100 µM (inactive) | > 100 µM (inactive) | > 100 µM (inactive) | > 100 µM (inactive) | > 100 µM (inactive) | > 100 µM (inactive) | 
O=c1[nH]c(=O)n(C2OC(CO)C(O)C(F)C2O)cc1F (centres undefined) | > 100 µM (inactive) | > 100 µM (inactive) | > 100 µM (inactive) | > 100 µM (inactive) | > 100 µM (inactive) | 0.0803 µM (active) | > 100 µM (inactive) | > 100 µM (inactive) | > 100 µM (inactive) |  | > 100 µM (inactive) | > 100 µM (inactive) | > 100 µM (inactive) | > 100 µM (inactive) |  | > 100 µM (inactive) | > 100 µM (inactive) | > 100 µM (inactive) | > 100 µM (inactive) | > 100 µM (inactive)
CCOC(=O)NC(NNc1ccc([N+](=O)[O-])cc1[N+](=O)[O-])(C(F)(F)F)C(F)(F)F | 40.3 µM (inactive) | 36 µM (inactive) | 40.7 µM (inactive) | 30.7 µM (inactive) | 30.5 µM (inactive) | 28.1 µM (inactive) | 25.1 µM (inactive) | 15.8 µM (inactive) | 22.5 µM (inactive) | 29.4 µM (inactive) |  | 30.8 µM (inactive) | 31.6 µM (inactive) | 23.3 µM (inactive) | 41.8 µM (inactive) | 16.1 µM (inactive) | 47 µM (inactive) | 24.7 µM (inactive) | 60.1 µM (inactive) | 21.9 µM (inactive)
COC(=O)c1scc(N)c1-n1ccc(=O)[nH]c1=O | > 100 µM (inactive) | > 100 µM (inactive) | > 100 µM (inactive) | > 100 µM (inactive) | > 100 µM (inactive) | > 100 µM (inactive) | > 100 µM (inactive) | > 100 µM (inactive) | > 100 µM (inactive) | > 100 µM (inactive) | > 100 µM (inactive) | > 100 µM (inactive) |  | > 100 µM (inactive) | > 100 µM (inactive) | > 100 µM (inactive) | > 100 µM (inactive) | > 100 µM (inactive) | > 100 µM (inactive) | > 100 µM (inactive)
COc1cc(/C=C/C2=NN(c3cccc(S(=O)(=O)O)c3)C3(C2)C(Cl)C(=O)N3c2nc3ccccc3s2)ccc1O (centres undefined) | 21.1 µM (inactive) | 20.7 µM (inactive) | 25.2 µM (inactive) | 14.8 µM (inactive) | 13.9 µM (inactive) | 19.2 µM (inactive) | 20.8 µM (inactive) | 20.8 µM (inactive) | 21.4 µM (inactive) | 19.1 µM (inactive) | 16.1 µM (inactive) | 18.3 µM (inactive) |  | 20.7 µM (inactive) | 20.3 µM (inactive) | 18.5 µM (inactive) | 39.7 µM (inactive) | 25.6 µM (inactive) | 11.4 µM (inactive) | 16.9 µM (inactive)
O=C1c2cc(Cl)ccc2-n2cnnc2C2CSCN12 (centres undefined) | > 100 µM (inactive) | > 100 µM (inactive) | > 100 µM (inactive) | > 100 µM (inactive) | > 100 µM (inactive) | > 100 µM (inactive) | > 100 µM (inactive) | > 100 µM (inactive) |  | > 100 µM (inactive) | > 100 µM (inactive) | > 100 µM (inactive) | > 100 µM (inactive) | > 100 µM (inactive) | > 100 µM (inactive) | > 100 µM (inactive) | > 100 µM (inactive) | > 100 µM (inactive) | > 100 µM (inactive) | > 100 µM (inactive)
